Laboratory results: a melting point compilation (Tetko et al.; mined from patent text by program, amines drawn as free bases though some values may be those of a salt)

Row | melting point [°C] | SMILES
1 | 102 to 103 | O=C(CCNC1CC1)Nc1cc(-c2nnc(SCc3cccc(F)c3)o2)ccn1
2 | > 230 | N#Cc1c(O)ccc2oc(-c3ccc(O)cc3)cc12
3 | 124 to 126 | CC1(C)OCC(CO)(CO)CO1
4 | 80 | OC1(c2ccc(OCc3ccccc3)c(OCc3ccccc3)c2)CCCN(Cc2ccccc2)C1 (configuration not stated)
5 | 74 to 76 | COC(=O)NC(C)(C)c1ccc(CBr)cc1
6 | 56 to 60 | CC(C)c1ccc(CCOc2ccnc3c(F)cccc23)cc1
7 | 55 to 57 | CCCCCCCCCCCCCCCCCCOc1cccc(N(CC(=O)OCc2ccccc2)CC(=O)OCc2ccccc2)c1
8 | 221 to 223 | CC1(C)OC(=S)Nc2ccc(-c3ccc(F)cc3)cc21
9 | 100 to 102 | COC(=O)C(c1ccccc1Cl)C1CNc2sc(OC(=O)c3ccc([N+](=O)[O-])cc3)cc2C1 (configuration not stated)
10 | 80 to 81 | O=Cc1ccc(OCc2ccccc2)cc1OCc1ccccc1
11 | 148 to 150 | COC(=O)C(Cc1ccc(OC)c(OC)c1)NNc1ccc(C)c(C)c1 (configuration not stated)
12 | 146 to 149 | CCOC(=O)CSc1nc(Cl)cc(NN=Cc2ccc(F)cc2)n1
13 | 256 to 257 | Cn1nc2c(N)nc3ccccc3c2c1CC(C)(C)O
14 | 155 to 156 | CCN1CC=C(CC(=O)NC2(c3ccc(C(F)(F)F)cc3)C(=O)Nc3cc(Cl)cc(Cl)c32)CC1 (single isomer, unassigned; (+))
15 | 85 to 87 | CCCCCCCCCCCCCCCCNC(=O)c1cccnc1
16 | 198 to 201 | Cc1cc(F)cc2c(=O)c(C(=O)O)cn(CC(F)(F)F)c12
17 | 44 to 45 | O=[N+]([O-])c1cnn(C2CC2)c1
18 | 121 to 122 | N#CCCSN1C(=O)COCC1=O
19 | 117 to 120 | CCC(CC)Nc1c([N+](=O)[O-])cc(C)c(COC(=O)NC)c1[N+](=O)[O-]
20 | 112 to 114 | CC(=O)OC(Cn1cncn1)(CC(Cl)(Cl)Cl)c1ccc(Cl)cc1 (configuration not stated)
21 | 188 to 189 | Cc1c(Br)c(=O)n(C2CCCCC2)c(=O)n1N=Cc1ccc(Cl)c(Cl)c1

Row | melting point [°C] | SMILES
22 | > 300 | Cn1c2ccncc2c(=O)n2nccc12
23 | 114 | CC(C)C(=O)Oc1ccc2c(c1)CCC1C2CCC2(C)C1CC(O[Si](C)(C)C(C)(C)C)C2OC(=O)C(C)C (configuration not stated)
24 | 202 to 203 | O=C(N[C@H](Cc1ccc(C(F)(F)F)cc1)[C@@H](O)c1ccc(F)cc1)c1ccc(F)cc1 (racemic)
25 | 89 to 93 | Cc1ccc2c3c(ccc2n1)OC[C@H](CNC[C@@H]1CCc2[nH]c4ccc(F)cc4c2C1)O3
26 | 63 to 64 | COc1ccc(CCCOCCCCCNCC(O)c2cc(Cl)c(N)c(Cl)c2)cc1 (configuration not stated)
27 | 114 to 117 | CN1CCCc2c(NC(=NC#N)NC(NC(=O)Cc3ccc(Cl)cc3)C(C)(C)C)cccc21 (configuration not stated)
28 | > 295 | O=C(c1c[nH]c2c1ccc1c3ccccc3[nH]c12)C(F)(F)F
29 | 136 | Cc1ccc(S(=O)(=O)N2[C@@H](CCC(N)=O)CC[C@H]2c2ccc(F)cc2)cc1 (racemic)
30 | 178 to 179 | CCCCc1nc(I)c(C=O)n1Cc1ccc(C(=O)OC)c2ccccc12
31 | 277 to 281 | CC(C)(CO)n1cnc2c(N)nc3ccccc3c21
32 | 267 to 269 | CC(=O)Nc1nc(NC(C)=O)nc(NC2CC2)n1
33 | 120 to 135 | O=C1CSc2ccc(CO)nc2N1
34 | 261 to 263 | Cc1c(Sc2ccc(Cl)cc2)nn(-c2ccc(O)cc2)c(=O)c1C#N
35 | 214 to 216 | CC(C)(C)NC(=O)c1nn(-c2ccc(F)cc2)c2c1C1CC3CC(C1)CC2C3
36 | 148 to 150 | CC(c1ccc2ccccc2c1)N(O)C(=O)NO (configuration not stated)
37 | 256 | c1ccc(C(Sc2nc3ccccc3[nH]2)(c2ccccc2)c2ccccc2)cc1
38 | 88 to 89 | CCCCCCCCCCCCCCCCCC(=O)NCCCSc1ccncc1
39 | 190 to 192 | CCCCc1ncc(/C=C(\Cc2cccs2)C(=O)O)n1Cc1ccc(C#N)cc1
40 | 74 to 75 | Nc1ccccc1C(=O)C1CCCCC1
41 | 134 to 135 | CCN1CCC(n2nc(-c3c(-c4ccccc4)nn4ccccc34)ccc2=O)CC1

Further lines, the molecule ahead of its results:

Row | SMILES | melting point [°C]
42 | Cc1cc(C(=O)N[C@@H](CC(C)C)C(=O)N[C@@H](C(C)C)[C@@H](O)c2c(-c3ccccc3)c2=O)n(C)n1 | 115 to 118
43 | COC(=O)c1cnccc1C(=O)c1ccc(-n2ccnc2)cc1 | 135 to 137
44 | CN1CCC(Sc2ccc3[nH]c(=O)[nH]c3c2)CC1 | 214 to 215
45 | CC(=Cc1ccc(N)cc1)c1ccc2c(c1)C(C)(C)CCC2(C)C | 106 to 108
46 | O=C(CSc1nc2ccccc2[nH]1)c1ccc(Br)cc1 | 241 to 245
47 | CNC(=O)Nc1ccc(C2=NNC(=O)CC2C)cn1 (configuration not stated) | 257 to 259
48 | CNS(=O)(=O)c1cccc(-c2cnc3[nH]cc(C(=O)C(C)(C)C)c3n2)c1 | 245 to 247
49 | COc1ccc2c(=O)cc(-c3ccccc3Cl)oc2c1 | 148 to 150
50 | CC(=O)C(Cc1cc(O)c(O)c([N+](=O)[O-])c1)C(C)=O | 118 to 128
51 | Cc1cc(C(=O)O)ccc1C1=CC(C)(C)CC(C)(C)C1 | 118 to 120
52 | NC(=S)Cc1cccc(Oc2ccccc2)c1O | 70
53 | CC(C)C[C@H](NC(=O)[C@@H]1CCCN1C(=O)[C@@H](N)CSCc1ccccc1)C(=O)NCC(N)=O | 130 to 134
54 | COC1=C(c2ccccc2)C(CCCC(=O)O)OC1=O (configuration not stated) | 94 to 96
55 | COCOc1cc(C=O)ccc1OCc1nc(-c2ccco2)oc1C | 102 to 103
56 | O=c1[nH]c2ccccc2c(=O)n1CCCCNCCCn1c(=O)[nH]c2ccccc2c1=O | 140
57 | O=C(O)CCCCCOc1nc(-c2ccccc2)c2ccccc2n1 | 112 to 114

Row | SMILES | melting point [°C]
58 | Nc1nc(=O)n(C2OC(CO)C(O)C2F)cc1Br (configuration not stated) | 201 to 202
59 | CCc1c(Cl)nc(NC=O)nc1Cl | 116 to 118
60 | Cc1ccc(C2CCN(C(=O)CCC(=O)c3ccc4c(c3)CCNCC4)CC2)cc1 | 115 to 116
61 | COc1ccc([C@@H]2CCc3cc(OC)ccc3[C@@H]2Cn2ccnc2)cc1 (relative stereo) | 114
62 | COC(=O)/C=C1\CCCCC1n1nc(-c2c(-c3ccccc3)nn3ccccc23)ccc1=O (configuration not stated) | 156 to 157
63 | O=NCNC1=Nc2sc(Cl)cc2C(c2ccccc2)=NC1 | 108 to 110
64 | Cc1nc(NC(=O)c2ccc(S(C)(=O)=O)cc2)sc1C(=O)NCc1ccccc1 | 262 to 265
65 | Cc1ccc(-n2c(-c3cccc4ccccc34)ccc2-c2cccc3ccccc23)cc1 | 105 to 106
66 | COC(=O)[C@H](Cc1c[nH]c2ccccc12)NC(=O)CCC(=O)[C@H](Cc1ccccc1)NC(=O)c1ccccc1 | 88 to 90
67 | Cc1cc2c(C(C)(C)C)c(O)ccc2o1 | 49.9
68 | Cc1cc(-n2nc(C#N)cc2-c2ccc(S(C)(=O)=O)cc2)ccc1F | 144
69 | CCOC(=O)NC[C@H]1CN(c2ccc(N3CCC(n4ncnn4)CC3)c(F)c2)C(=O)O1 | 176 to 178
70 | O=C1c2ccccc2C(O)N1CCCOc1ccncc1 (configuration not stated) | 124 to 125
71 | CCc1nc2ccccc2n(-c2ccc(Cl)cc2)c1=O | 163 to 165
72 | COC(=O)c1cccc(OCc2ncc3ccccc3n2)c1 | 78 to 80
